# Data reported in patent US4921850A, “3-propenylcephem derivative” (Eisai Co., Ltd., priority 1986, dated 1990).
# Like-named read-outs stand apart in the source and are kept apart here.
# Legend:
# Assay in all cases: Anti-bacterial activity (MIC), agar dilution
# Assay type in all cases: cell-based
# Ser. marcescens ES-75 = tested on: Ser. marcescens ES-75
# Method: (§1) MIC (μg/ml) were determined by an agar dilution method [Chemotherapy (Japan), 29, 76-79, 1981]. Overnight cultures of the bacterial strains in Mueller-Hinton broth were diluted to final concentration of about 10^6 CFU/ml, and 5 μl of each bacterial suspension was spotted onto Mueller-Hinton agar plates that contained twofold serial dilutions of antibiotics. MICs were measured after incubation for 18 hours at 37° C.
# Staph. aureus 209-P = details: Staph. aureus 209-P, agar dilution, about 10^6 CFU/ml, 18 hours, 37° C.
# Method: as §1
# [1] = tested on: Morganella morganii EP-14; details: about 10^6 CFU/ml, 37° C.
# Method: as §1
# Kleb. pneumoniae EK-6 = details: Kleb. pneumoniae EK-6, agar dilution, about 10^6 CFU/ml, 18 hours, 37° C.
# Method: as §1
# Pseud. aeruginosa EP-01 = details: Pseud. aeruginosa EP-01, agar dilution, about 10^6 CFU/ml, 18 hours, 37° C.
# Method: as §1
# Escher. coli NIHJ = details: Escher. coli NIHJ, agar dilution, about 10^6 CFU/ml, 18 hours, 37° C.
# Method: as §1
# [2] = Serratia marcescens, ES75, 18 h, Ser. marcescens ES-75, agar dilution, about 10^6 CFU/ml, 18 hours, 37° C., read-out: MIC
# [3] = Staphylococcus aureus, 209P, 18 h, read-out: MIC
# [4] = Morganella morganii, EP14, 18 h, read-out: MIC
# [5] = Klebsiella pneumoniae, EK6, 18 h, read-out: MIC
# [6] = Pseudomonas aeruginosa, EP01, 18 h, read-out: MIC
# [7] = Escherichia coli, 18 h, read-out: MIC
# [8] = Ser. marcescens ES-75, agar dilution, about 10^6 CFU/ml, 18 hours, 37° C.
Structure (SMILES),MIC (Ser. marcescens ES-75; [2]) [µg/mL],MIC (Staph. aureus 209-P; [3]) [µg/mL],"MIC [1, 4] [µg/mL]",MIC (Kleb. pneumoniae EK-6; [5]) [µg/mL],MIC (Pseud. aeruginosa EP-01; [6]) [µg/mL],MIC (Escher. coli NIHJ; [7]) [µg/mL],MIC (Ser. marcescens ES-75; [8]) [µg/mL],MIC (Staph. aureus 209-P) [µg/mL],MIC ([1]; 18 hours) [µg/mL],MIC (Kleb. pneumoniae EK-6) [µg/mL],MIC (Pseud. aeruginosa EP-01) [µg/mL],MIC (Escher. coli NIHJ) [µg/mL],"MIC (Ser. marcescens ES-75; Serratia marcescens, ES75, 18 h) [µg/mL]"
CNC(=O)[C@@H](C)[N+](C)(C)C/C=C/C1=C(C(=O)[O-])N2C(=O)[C@@H](NC(=O)/C(=N\OCF)c3nsc(N)n3)[C@H]2SC1 [Example 59],≤ 0.025,0.4,≤ 0.025,≤ 0.025,1.56,≤ 0.025,–,–,–,–,–,–,–
Nc1ccc[n+](C/C=C/C2=C(C(=O)[O-])N3C(=O)[C@@H](NC(=O)/C(=N\OCF)c4nsc(N)n4)[C@H]3SC2)c1 [Example 103],≤ 0.025,0.1,≤ 0.025,≤ 0.025,3.13,≤ 0.025,–,–,–,–,–,–,–
"N#CCO/N=C(\C(=O)N[C@@H]1C(=O)N2C(C(=O)[O-])=C(/C=C/C[n+]3ccc(C(N)=O)cc3)CS[C@H]12)c1nsc(N)n1 [Example 158, 7β-[2-(5-Amino-1,2,4-thiadiazol-3-yl)-(Z)-2-cyanomethoxyiminoacetoamido]-3-[(E)-3-(4-carbamoylpyridinio)-1-propen-1-yl]-3-cephem-4-carboxylate]",0.1,0.2,0.1,≤ 0.025,1.56,≤ 0.025,–,–,–,–,–,–,–
"NC(=O)C[N+]1(C/C=C/C2=C(C(=O)[O-])N3C(=O)[C@@H](NC(=O)/C(=N\OCF)c4nsc(N)n4)[C@H]3SC2)CCC(O)C1 (stereo partly drawn) [Example 9-2, 7β-[2-(5-Amino-1,2,4-thiadiazol-3-yl)-(Z)-2-fluoromethoxyiminoacetamido]-3-[(E)-3-(1-carbamoylmethyl-3-hydroxy-1-pyrrolidinio)-1-propen-1-yl]-3-cephem-4-carboxylate]",–,–,–,–,–,–,≤ 0.025,0.4,≤ 0.025,≤ 0.025,0.8,≤ 0.025,–
CC[N+](C)(CC#N)C/C=C/C1=C(C(=O)[O-])N2C(=O)[C@@H](NC(=O)/C(=N\OCF)c3nsc(N)n3)[C@H]2SC1 (stereo partly drawn) [Example 45],0.1,0.4,≤ 0.025,≤ 0.025,0.8,≤ 0.025,–,–,–,–,–,–,–
CN(C)CC(O)C[N+](C)(C)C/C=C/C1=C(C(=O)[O-])N2C(=O)[C@@H](NC(=O)/C(=N\OCF)c3nsc(N)n3)[C@H]2SC1 (stereo partly drawn) [Example 78],0.2,0.4,0.2,0.2,3.13,0.2,–,–,–,–,–,–,–
NC(=O)C[N+]1(C/C=C/C2=C(C(=O)[O-])N3C(=O)[C@@H](NC(=O)/C(=N\OCF)c4nsc(N)n4)[C@H]3SC2)CCCC1 [Example 19],–,0.2,≤ 0.025,≤ 0.025,0.8,≤ 0.025,–,–,–,–,–,–,0.5
"C[N+]1(C/C=C/C2=C(C(=O)[O-])N3C(=O)[C@@H](NC(=O)/C(=N\OCF)c4nsc(N)n4)[C@H]3SC2)C[C@H](O)C[C@@H]1CO (single isomer, unassigned) [Example 6-2, 7β-[2-(5-Amino-1,2,4-thiadiazol-3-yl)-(Z)-2-fluoromethoxyiminoacetamido]-3-[(E)-3-(4R-hydroxy-2R-hydroxymethyl-1-methyl-1-pyrrolidinio)-1-propen-1-yl]-3-cephem-4-carboxylate]",–,–,–,–,–,–,≤ 0.025,0.1,≤ 0.025,≤ 0.025,0.8,≤ 0.025,–
CC(O)C[N+](C)(C)C/C=C/C1=C(C(=O)[O-])N2C(=O)[C@@H](NC(=O)/C(=N\OCC#N)c3nsc(N)n3)[C@H]2SC1 (stereo partly drawn) [Example 149],0.05,0.2,0.05,0.05,1.56,0.1,–,–,–,–,–,–,–
Nc1nc(/C(=N/OCF)C(=O)N[C@@H]2C(=O)N3C(C(=O)[O-])=C(/C=C/C[N+]4(CCO)CCC[C@@H]4CO)CS[C@H]23)ns1 (stereo partly drawn) [Example 16],≤ 0.025,0.2,≤ 0.025,≤ 0.025,0.8,≤ 0.025,–,–,–,–,–,–,–
Nc1nc(/C(=N/OCF)C(=O)N[C@@H]2C(=O)N3C(C(=O)[O-])=C(/C=C/C[N+]4(CCO)CCC(O)C4)CS[C@H]23)ns1 (stereo partly drawn) [Example 15-1],≤ 0.025,0.4,≤ 0.025,≤ 0.025,1.56,0.05,–,–,–,–,–,–,–
C[N+](C)(C/C=C/C1=C(C(=O)[O-])N2C(=O)[C@@H](NC(=O)/C(=N\OCF)c3nsc(N)n3)[C@H]2SC1)CCO [Example 64],0.1,0.2,≤ 0.025,≤ 0.025,0.8,≤ 0.025,–,–,–,–,–,–,–
